Series [1] has as its target Protein-arginine deiminase type-2 (Homo sapiens, UniProt Q9Y2J8). Briefly: Inhibition of PAD2 (unknown origin) using Nalpha-benzoyl-L-arginine ethyl ester as substrate preincubated for 60 mins followed by substrate addition and measured after 90 mins by colorimetric analysis.
A further series relates to 4T1. Description: Antiproliferative activity against mouse 4T1 cells assessed as inhibition of cell growth incubated for 48 hrs by MTT assay. The series is classed as functional, cell-based. The following applies: 4T1, 48 h.
Series [2] in a line: Cytotoxicity against human MCF-10A cells assessed as inhibition of cell growth incubated for 48 hrs by MTT assay. Type of series: toxicity, cell-based. Background: Tetrazolium dyes change colour on reduction, which living cells bring about.
The next series relates to MDA-MB-468. Description: Antiproliferative activity against human MDA-MB-468 cells assessed as inhibition of cell growth incubated for 48 hrs by MTT assay. The series is classed as functional, cell-based. The following applies: MDA-MB-468, 48 h.
Series [3] deals with Protein-arginine deiminase type-4 (Homo sapiens, UniProt Q9UM07). Description: Inhibition of PAD4 (unknown origin) using Nalpha-benzoyl-L-arginine ethyl ester as substrate preincubated for 60 mins followed by substrate addition and measured after 90 mins by colorimetric analysis.
Chain of Protein-arginine deiminase type-4 (Q9UM07 whole entry): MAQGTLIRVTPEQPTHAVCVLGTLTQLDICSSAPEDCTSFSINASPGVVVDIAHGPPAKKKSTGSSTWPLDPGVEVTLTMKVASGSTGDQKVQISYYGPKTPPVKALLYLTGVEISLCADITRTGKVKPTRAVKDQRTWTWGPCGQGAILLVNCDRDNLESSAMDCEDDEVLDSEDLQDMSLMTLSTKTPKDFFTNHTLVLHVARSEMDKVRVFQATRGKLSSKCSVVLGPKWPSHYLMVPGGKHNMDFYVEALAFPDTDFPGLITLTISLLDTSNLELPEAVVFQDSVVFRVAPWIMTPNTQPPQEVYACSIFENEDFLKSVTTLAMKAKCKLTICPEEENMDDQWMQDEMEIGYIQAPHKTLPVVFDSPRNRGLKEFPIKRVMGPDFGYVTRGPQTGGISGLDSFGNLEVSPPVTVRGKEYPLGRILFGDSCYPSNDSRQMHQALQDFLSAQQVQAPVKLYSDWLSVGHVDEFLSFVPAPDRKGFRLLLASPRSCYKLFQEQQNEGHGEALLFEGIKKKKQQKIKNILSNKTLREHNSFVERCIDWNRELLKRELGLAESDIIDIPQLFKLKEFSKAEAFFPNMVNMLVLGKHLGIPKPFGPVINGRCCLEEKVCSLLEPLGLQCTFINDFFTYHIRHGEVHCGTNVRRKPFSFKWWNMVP

IC50 data for 32 compounds are collected here from ChEMBL document CHEMBL5506043, “A β-Carboline Derivate PAD4 Inhibitor Reshapes Neutrophil Phenotype and Improves the Tumor Immune Microenvironment against Triple-Negative Breast Cancer” (J Med Chem, 2024).

Bounds are passed on as bounds.

Chain of Protein-arginine deiminase type-2 (Q9Y2J8 whole entry): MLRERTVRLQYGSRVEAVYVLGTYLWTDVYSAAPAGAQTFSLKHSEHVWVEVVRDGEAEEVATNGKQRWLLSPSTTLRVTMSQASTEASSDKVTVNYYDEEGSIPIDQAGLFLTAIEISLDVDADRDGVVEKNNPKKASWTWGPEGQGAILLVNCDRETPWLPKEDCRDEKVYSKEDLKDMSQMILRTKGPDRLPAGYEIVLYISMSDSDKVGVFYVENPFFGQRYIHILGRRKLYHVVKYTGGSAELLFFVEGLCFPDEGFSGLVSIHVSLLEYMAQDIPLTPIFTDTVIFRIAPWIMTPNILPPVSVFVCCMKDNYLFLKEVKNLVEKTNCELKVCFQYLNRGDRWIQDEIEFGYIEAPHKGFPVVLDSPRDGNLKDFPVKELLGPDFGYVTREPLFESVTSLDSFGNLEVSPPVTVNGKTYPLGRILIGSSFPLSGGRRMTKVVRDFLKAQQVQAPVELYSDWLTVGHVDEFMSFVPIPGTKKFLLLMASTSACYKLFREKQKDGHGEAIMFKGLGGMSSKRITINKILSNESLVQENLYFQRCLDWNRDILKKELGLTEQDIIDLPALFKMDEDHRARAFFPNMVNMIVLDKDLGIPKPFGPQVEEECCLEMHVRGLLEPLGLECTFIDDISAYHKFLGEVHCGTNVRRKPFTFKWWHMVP

In the case of `CCCCCc1nc(C(=O)N[C@@H](CCCNC(=N)CCl)C(=O)NCc2ccccc2)cc2c1[nH]c1ccccc12`, the IC50 (usually the midpoint of a concentration-inhibition curve) in series [1] stood at 3.64 µM; in the series on 4T1, 8.07 µM; in the series on MDA-MB-468, 7.45 µM; in series [3] it was 1.75 µM. Further, the IC50 at 48 h in series [2] stood at 8.01 µM.
For `CCC(CC)c1nc(C(=O)N[C@@H](CCCNC(=N)CCl)C(=O)NCc2ccccc2)cc2c1[nH]c1ccccc12` the same measures were 1.36 µM, 5.66 µM, 3.72 µM, 1.1 µM and 3.82 µM.
`N=C(CCl)NCCC[C@H](NC(=O)[C@@H]1Cc2ccccc2CN1)C(=O)NCc1ccccc1`: the IC50 in series [1] is 11.6 µM; in the series on 4T1 it was 74 µM; in the series with MDA-MB-468 it was greater than 100 µM; in series [3] it was 6.46 µM. The half-maximal inhibitory concentration (IC50) at 48 h in series [2] was greater than 100 µM.
As for `N=C(CCl)NCCC[C@H](NC(=O)c1cc2c([nH]c3ccccc32)c(-c2ccc3ccccc3n2)n1)C(=O)NCc1ccccc1`, the 50% inhibitory concentration (IC50) was greater than 10 µM in series [1], 0.88 µM in the series on 4T1, 3.05 µM in the series on MDA-MB-468 and 13.2 µM in series [3]. In addition, the IC50 at 48 h in series [2] was 2.77 µM.
For `N#Cc1ccc(-c2nc(C(=O)N[C@@H](CCCNC(=N)CCl)C(=O)NCc3ccccc3)cc3c2[nH]c2ccccc23)cc1` the same measures were 3 µM, 18.3 µM, 4.36 µM, 1.61 µM and 11.1 µM.
With `COc1cccc(OC)c1-c1nc(C(=O)N[C@@H](CCCNC(=N)CCl)C(=O)NCc2ccccc2)cc2c1[nH]c1ccccc12`, the IC50 in series [1] is 1.51 µM; with 4T1, 13.9 µM; with MDA-MB-468, 5.87 µM; in series [3], 1.89 µM. The IC50 at 48 h in series [2] was 14.7 µM.
For `N=C(CCl)NCCC[C@H](NC(=O)c1ccc2nc[nH]c2c1)C(=O)NCc1ccccc1` the same measures were 2.08 µM, greater than 100 µM, greater than 100 µM, 1.15 µM and greater than 100 µM.
In the same order, the values of `N=C(CCl)NCCC[C@H](NC(=O)c1ccc2c(c1)NCCN2)C(=O)NCc1ccccc1` are 1.93 µM, greater than 100 µM, greater than 100 µM, 2.3 µM and greater than 100 µM.
For `N=C(CCl)NCCC[C@H](NC(=O)c1cc2c([nH]c3ccccc32)c(-c2cc3ccccc3cn2)n1)C(=O)NCc1ccccc1` the same measures were greater than 10 µM, 1.48 µM, 4.26 µM, 24.1 µM and 4.02 µM.
As to `Cn1c(-c2nc(C(=O)N[C@@H](CCCNC(=N)CCl)C(=O)NCc3ccccc3)cc3c2[nH]c2ccccc23)nc2ccccc21`, the IC50 in series [1] was greater than 10 µM; in the series on 4T1, 3.77 µM; with MDA-MB-468, 4.82 µM; in series [3], greater than 10 µM. In series [2], the IC50 at 48 h was found to be 5.3 µM.
Turning to `CC(C)(C)c1nc(C(=O)N[C@@H](CCCNC(=N)CCl)C(=O)NCc2ccccc2)cc2c1[nH]c1ccccc12`, the half-inhibitory concentration (IC50) in series [1] was determined as 4.32 µM; with 4T1 it was 7.51 µM; with MDA-MB-468, 4.31 µM; in series [3] it was 1.2 µM. Besides, the IC50 at 48 h in series [2] is 3.08 µM.
For `COc1ccc(-c2nc(C(=O)N[C@@H](CCCNC(=N)CCl)C(=O)NCc3ccccc3)cc3c2[nH]c2ccccc23)cc1OC` the same measures were 4.59 µM, 11.4 µM, 5.93 µM, 1.52 µM and 11.1 µM.
Regarding `N=C(CCl)NCCC[C@H](NC(=O)c1cc2c([nH]c3ccccc32)c(-c2ccc(Cl)cc2)n1)C(=O)NCc1ccccc1`, the concentration for half-maximal inhibition (IC50) in series [1] was 4.05 µM; with 4T1 it was 9.39 µM; with MDA-MB-468 it was 4.05 µM; in series [3], 1.13 µM. Moreover, in series [2], the IC50 at 48 h turned out to be 6.35 µM.
On to `N=C(CCl)NCCC[C@H](NC(=O)c1cc2c([nH]c3ccccc32)c(C2CCCCC2)n1)C(=O)NCc1ccccc1`, for which the IC50 in series [1] was 2.32 µM; in the series with 4T1, 5.48 µM; with MDA-MB-468 it was 2.89 µM; in series [3] it was 1.11 µM. Moreover, in series [2], the IC50 at 48 h is 2.76 µM.
With `N=C(CCl)NCCC[C@H](NC(=O)c1cc2c([nH]c3ccccc32)c(-c2ccc3ccccc3c2)n1)C(=O)NCc1ccccc1`, the half-maximal inhibitory concentration (IC50) in series [1] was greater than 10 µM; with 4T1, 5.8 µM; in the series with MDA-MB-468, 4.23 µM; in series [3], 3.24 µM. In addition, the 50% inhibitory concentration (IC50) at 48 h in series [2] came to 9.73 µM.
For `N=C(CCl)NCCC[C@H](NC(=O)c1cc2c([nH]c3ccccc32)c(C2CC2)n1)C(=O)NCc1ccccc1` the same measures were 1.27 µM, 12.2 µM, 4.88 µM, 0.62 µM and 4.37 µM.
In the case of `COc1ccc(-c2nc(C(=O)N[C@@H](CCCNC(=N)CCl)C(=O)NCc3ccccc3)cc3c2[nH]c2ccccc23)cc1`, the IC50 in series [1] is 3.04 µM; with 4T1 it was 7.48 µM; with MDA-MB-468, 4.2 µM; in series [3] it was 1.7 µM. Also, the IC50 at 48 h in series [2] was found to be 6.27 µM.
In the same order, the values of `N=C(CCl)NCCC[C@H](NC(=O)c1cc2c([nH]c3ccccc32)c(-c2ccc(O)cc2)n1)C(=O)NCc1ccccc1` are 2.26 µM, 22.9 µM, 30.5 µM, 1.08 µM and 51.8 µM.
Take `N=C(CCl)NCCC[C@H](NC(=O)c1nc2ccccc2[nH]1)C(=O)NCc1ccccc1`: the 50% inhibitory concentration (IC50) in series [1] came out at 5.4 µM; in the series with 4T1, 72.1 µM; in the series on MDA-MB-468, 29.2 µM; in series [3], 2.92 µM. For the same compound, the 50% inhibitory concentration (IC50) at 48 h in series [2] was 29.7 µM.
In the same order, the values of `CC(C)c1ccc(-c2nc(C(=O)N[C@@H](CCCNC(=N)CCl)C(=O)NCc3ccccc3)cc3c2[nH]c2ccccc23)cc1` are greater than 10 µM, 4.28 µM, 2.95 µM, 6.89 µM and 3.52 µM.
`N=C(CCl)NCCC[C@H](NC(=O)c1ccc2nccnc2c1)C(=O)NCc1ccccc1`: the 50% inhibitory concentration (IC50) stood at 2.28 µM in series [1], 46.2 µM in the series with 4T1, 69.5 µM with MDA-MB-468 and 2.64 µM in series [3]. Besides, the IC50 at 48 h in series [2] was 54 µM.
With `N=C(CCl)NCCC[C@H](NC(=O)c1cc2c([nH]c3ccccc32)c(-c2ccc(F)cc2)n1)C(=O)NCc1ccccc1`, the IC50 worked out at 2.95 µM in series [1], 11 µM in the series on 4T1, 3.97 µM with MDA-MB-468 and 1.02 µM in series [3]. For the same compound, the half-maximal inhibitory concentration (IC50) at 48 h in series [2] was 7.07 µM.
For `N=C(CCl)NCCC[C@H](NC(=O)c1c[nH]c2ccc(F)cc12)C(=O)NCc1ccccc1` the same measures were 2.1 µM, 85.5 µM, 92 µM, 1.02 µM and 72.7 µM.
In the same order, the values of `Cc1nc(C(=O)N[C@@H](CCCNC(=N)CCl)C(=O)NCc2ccccc2)cc2c1[nH]c1ccccc12` are 0.83 µM, 18.9 µM, 6.73 µM, 0.76 µM and 18.2 µM.
In the case of `N=C(CCl)NCCC[C@H](NC(=O)c1ccc2[nH]ccc2c1)C(=O)NCc1ccccc1`, the half-maximal inhibitory concentration (IC50) in series [1] worked out at 1.43 µM; with 4T1, 41.4 µM; with MDA-MB-468 it was 61.3 µM; in series [3] it was 0.8 µM. Further, in series [2], the IC50 at 48 h turned out to be 63.6 µM.
For `N=C(CCl)NCCC[C@H](NC(=O)c1cc2c([nH]c3ccccc32)c(-c2ncc[nH]2)n1)C(=O)NCc1ccccc1` the same measures were 10.8 µM, 6.67 µM, 6.94 µM, 3.12 µM and 12.4 µM.
As to `COc1cc(OC)c(-c2nc(C(=O)N[C@@H](CCCNC(=N)CCl)C(=O)NCc3ccccc3)cc3c2[nH]c2ccccc23)c(OC)c1`, the IC50 in series [1] worked out at 1.63 µM; in the series on 4T1 it was 16 µM; in the series with MDA-MB-468 it was 6.18 µM; in series [3], 2.15 µM. For the same compound, the half-maximal inhibitory concentration (IC50) at 48 h in series [2] was determined as 16.9 µM.
Take `COC(Cc1nc(C(=O)N[C@@H](CCCNC(=N)CCl)C(=O)NCc2ccccc2)cc2c1[nH]c1ccccc12)OC`: the half-inhibitory concentration (IC50) in series [1] was 1 µM; in the series on 4T1 it was 19.8 µM; with MDA-MB-468 it was 7.99 µM; in series [3] it was 0.96 µM. Besides, the IC50 at 48 h in series [2] was 11 µM.
With `Cc1ccc(-c2nc(C(=O)N[C@@H](CCCNC(=N)CCl)C(=O)NCc3ccccc3)cc3c2[nH]c2ccccc23)cc1`, the half-inhibitory concentration (IC50) in series [1] is greater than 10 µM; in the series on 4T1, 8.02 µM; with MDA-MB-468, 6.94 µM; in series [3], 10 µM. For the same compound, in series [2], the IC50 at 48 h worked out at 17.5 µM.
In the same order, the values of `CC(C)Cc1nc(C(=O)N[C@@H](CCCNC(=N)CCl)C(=O)NCc2ccccc2)cc2c1[nH]c1ccccc12` are 1.03 µM, 10.1 µM, 4.42 µM, 0.71 µM and 5.16 µM.
In the same order, the values of `N=C(CCl)NCCC[C@H](NC(=O)c1cc2c([nH]c3ccccc32)c(-c2nccc3ccccc23)n1)C(=O)NCc1ccccc1` are greater than 10 µM, 1.3 µM, 3.66 µM, 14 µM and 3.03 µM.
For `CC(C)c1nc(C(=O)N[C@@H](CCCNC(=N)CCl)C(=O)NCc2ccccc2)cc2c1[nH]c1ccccc12`, the concentration for half-maximal inhibition (IC50) was 1.14 µM in series [1], 11.5 µM in the series on 4T1, 5.2 µM in the series on MDA-MB-468 and 1.18 µM in series [3]. Besides, the half-maximal inhibitory concentration (IC50) at 48 h in series [2] was determined as 4.07 µM.
